Test results taken from US11214803B2, “Modulators of YAP1 expression” (Ionis Pharmaceuticals, Inc., priority 2019, dated 2022).
Strand notation (5' to 3'): a small letter for the sugar, then the base; units joined by * are phosphorothioate-linked, units joined directly phosphodiester-linked; [ ] holds rarer units or linkages, { } end groups; capitals alone tell only the bases. k = constrained ethyl (cEt); [5mC] = 5-methylcytosine; d = 2'-deoxy (DNA)

Test system: Yap1 mRNA
Assay: Dose-dependent inhibition of human Yap1 in A-431 cells (Example 7, 10,000 cells per well, RTS36584)
Assay type: cell-based
Conditions: free uptake; for Yap1 mRNA, % UTC: A-431 cells 10,000 cells per well, 48 hours
Method: Modified oligonucleotides described in the studies above were tested at various doses in A-431 cells. Cultured A-431 cells at a density of 10,000 cells per well were treated using free uptake with modified oligonucleotides diluted to concentrations described in the tables below. After approximately 48 hours, Yap1 mRNA levels were measured as previously described using the Human Yap1 primer-probe set RTS36584. Yap1 mRNA levels were normalized to total RNA content, as measured by RIBOGREEN®. Results are presented in the tables below as percent control of the amount of Yap1 mRNA relative to untreated control cells (% UTC). IC50s were calculated using a linear regression on a log/linear plot of the data in excel.

[1] = Table 56, A-431 cells 10,000 cells per well
[2] = Table 58, A-431 cells 10,000 cells per well
[3] = Table 59, A-431 cells 10,000 cells per well
[4] = Table 60, A-431 cells 10,000 cells per well

With “958536 (kA*kG*kG*dG*dT*d[5mC]*dA*dA*dT*dT*dT*dT*d[5mC]*kA*kG*k[5mC]; antisense) [compound 958536]” the “Yap1 mRNA, % UTC” value (Table 56, 15.6 nM) was 94 % UTC, the “Yap1 mRNA, % UTC” value (Table 56, 62.5 nM) was 67 % UTC and the “Yap1 mRNA, % UTC” value (Table 56, 4000.00 nM) was 16 % UTC. It also gave an IC50 [1] of 140 nM.
In the case of “958477 (kA*kT*kT*dT*d[5mC]*d[5mC]*dG*dG*dT*dG*d[5mC]*dA*dT*kG*kT*kG; antisense) [compound 958477]”, the “Yap1 mRNA, % UTC” value (Table 58, 15.6 nM) is reported as 83 % UTC, the “Yap1 mRNA, % UTC” value (Table 58, 62.5 nM) is reported as 37 % UTC and the “Yap1 mRNA, % UTC” value (Table 58, 4000.00 nM) is reported as 6 % UTC. It also gave an IC50 [2] of 100 nM.
For “958496 (k[5mC]*k[5mC]*kT*dT*dA*dT*dA*dA*dG*d[5mC]*dT*d[5mC]*d[5mC]*kT*kA*kA; antisense) [compound 958496]”, the “Yap1 mRNA, % UTC” value (Table 56, 15.6 nM) was 86 % UTC, the “Yap1 mRNA, % UTC” value (Table 56, 62.5 nM) was 53 % UTC and the “Yap1 mRNA, % UTC” value (Table 56, 4000.00 nM) was 9 % UTC. For the same substance, the IC50 [1] was 90 nM.
With “958573 (kG*kG*k[5mC]*dA*dA*dA*dT*dT*dA*dT*dA*dG*dG*k[5mC]*kA*k[5mC]; antisense) [compound 958573]” the “Yap1 mRNA, % UTC” value (Table 59, 15.6 nM) was 81 % UTC, the “Yap1 mRNA, % UTC” value (Table 59, 62.5 nM) was 56 % UTC and the “Yap1 mRNA, % UTC” value (Table 59, 4000.00 nM) was 8 % UTC. It also gave an IC50 [3] of 100 nM.
“958568 (kT*kA*kT*dG*dA*dG*dT*dG*dA*dT*d[5mC]*dA*dA*k[5mC]*k[5mC]*kT; antisense) [compound 958568]” was tested, and the “Yap1 mRNA, % UTC” value (Table 60, 15.6 nM) was 88 % UTC, the “Yap1 mRNA, % UTC” value (Table 60, 62.5 nM) was 65 % UTC and the “Yap1 mRNA, % UTC” value (Table 60, 4000.00 nM) was 21 % UTC. For the same substance, the IC50 [4] was 100 nM.
For “958718 (kG*kA*kA*d[5mC]*dA*d[5mC]*dT*dA*dT*dA*dG*d[5mC]*dT*kT*kG*kG; antisense) [compound 958718]”, the “Yap1 mRNA, % UTC” value (Table 60, 15.6 nM) was 104 % UTC, the “Yap1 mRNA, % UTC” value (Table 60, 62.5 nM) was 80 % UTC and the “Yap1 mRNA, % UTC” value (Table 60, 4000.00 nM) was 24 % UTC. It also gave an IC50 [4] of 200 nM.
With “958758 (k[5mC]*kT*kA*dT*dT*d[5mC]*dA*dG*dT*dG*dA*dT*d[5mC]*kT*kG*k[5mC]; antisense) [compound 958758]” the “Yap1 mRNA, % UTC” value (Table 59, 15.6 nM) was 83 % UTC, the “Yap1 mRNA, % UTC” value (Table 59, 62.5 nM) was 66 % UTC and the “Yap1 mRNA, % UTC” value (Table 59, 4000.00 nM) was 12 % UTC. The IC50 [3] was 100 nM.
With “958623 (kT*kT*kG*dA*dT*dA*dT*dT*d[5mC]*d[5mC]*dG*d[5mC]*dA*kT*kT*kG; antisense) [compound 958623]” the “Yap1 mRNA, % UTC” value (Table 59, 15.6 nM) was 100 % UTC, the “Yap1 mRNA, % UTC” value (Table 59, 62.5 nM) was 62 % UTC and the “Yap1 mRNA, % UTC” value (Table 59, 4000.00 nM) was 10 % UTC. It also gave an IC50 [3] of 100 nM.
For “958757 (kG*kT*kG*dA*dT*d[5mC]*dT*dG*d[5mC]*dA*d[5mC]*dA*dT*kT*kG*kT; antisense) [compound 958757]”, the “Yap1 mRNA, % UTC” value (Table 58, 15.6 nM) was 110 % UTC, the “Yap1 mRNA, % UTC” value (Table 58, 62.5 nM) was 89 % UTC and the “Yap1 mRNA, % UTC” value (Table 58, 4000.00 nM) was 27 % UTC. For the same substance, the IC50 [2] was 300 nM.
For “958356 (antisense kT*kT*kG*dA*dA*dG*dA*dA*dG*dG*dA*dG*dT*k[5mC]*kG*kG) [compound 958356]”, the “Yap1 mRNA, % UTC” value (Table 56, 15.6 nM) was 84 % UTC, the “Yap1 mRNA, % UTC” value (Table 56, 62.5 nM) was 79 % UTC and the “Yap1 mRNA, % UTC” value (Table 56, 4000.00 nM) was 21 % UTC. The IC50 [1] was 180 nM.
“958767 (kA*k[5mC]*kG*dA*dA*dT*dA*dA*dG*dG*d[5mC]*dA*dT*kT*kA*kG; antisense) [compound 958767]” was tested, and the “Yap1 mRNA, % UTC” value (Table 59, 15.6 nM) was 101 % UTC, the “Yap1 mRNA, % UTC” value (Table 59, 62.5 nM) was 57 % UTC and the “Yap1 mRNA, % UTC” value (Table 59, 4000.00 nM) was 10 % UTC. It also gave an IC50 [3] of 100 nM.
